Active and inactive are the calls of the source. No cut-off for these calls is given here. Where a SMILES comes first, the peptide text is derived from it. [ ]: non-standard residue; d: D form. The star is where a group is joined. ξ: configuration not given here. Phe(ol) = N[C@H](CO)Cc1ccccc1; ξF = NC(Cc1ccccc1)C(=O)O; Boc = CC(C)(C)OC(=O)*
System: not listed separately
Experiment: Inhibition of alpha-chymotrypsin (unknown origin) using Ala-Ala-Phe-7-AMC as substrate measured over 10 mins by spectrophotometric method
Parameters: species or system Homo sapiens

| IC50 | Structure (SMILES) |
| --- | --- |
| 1.4 µM | CC(C)C[C@H](NC(=O)[C@H](C)NC(=O)OC(C)(C)C)C(=O)NC(C=O)Cc1ccccc1 (stereo partly drawn) (Boc-Ala-Leu-[ξF]-aldehyde) |
| 1.1 µM | COC(=O)c1ccc(C(=O)N[C@@H](CC(C)C)C(=O)NC(C=O)Cc2ccccc2)[nH]1 (mixture of isomers) |
| 36 µM | COC(=O)c1ccc(C(=O)N[C@@H](CC(C)C)C(=O)NC(C=O)Cc2ccccc2)o1 (mixture of isomers) |
| 35 µM | COC(=O)c1cccc(C(=O)N[C@@H](CC(C)C)C(=O)NC(C=O)Cc2ccccc2)n1 (stereo partly specified) |
| 40 µM | COC(=O)c1ccc(C(=O)N[C@@H](CC(C)C)C(=O)NC(C=O)Cc2ccccc2)s1 (mixture of isomers) |

Organism: Homo sapiens
Experiment: Inhibition of alpha-chymotrypsin (unknown origin) at 500 uM using Ala-Ala-Phe-7-AMC as substrate measured over 10 mins by spectrophotometric method

| inhibition | Structure (SMILES) |
| --- | --- |
| inactive | CCOC(=O)c1ccc(C(=O)N[C@@H](CC(C)C)C(=O)N[C@H](CO)Cc2ccccc2)o1 |
| inactive | COC(=O)c1ccc(C(=O)N[C@@H](CC(C)C)C(=O)N[C@H](CO)Cc2ccccc2)[nH]1 |
| inactive | CC(C)C[C@H](NC(=O)[C@H](C)NC(=O)OC(C)(C)C)C(=O)N[C@H](CO)Cc1ccccc1 (Boc-Ala-Leu-[Phe(ol)]) |
| inactive | COC(=O)c1ccc(C(=O)N[C@@H](CC(C)C)C(=O)N[C@H](CO)Cc2ccccc2)o1 |
| inactive | COC(=O)c1ccc(C(=O)N[C@@H](CC(C)C)C(=O)N[C@H](CO)Cc2ccccc2)s1 |
| inactive | COC(=O)c1cccc(C(=O)N[C@@H](CC(C)C)C(=O)N[C@H](CO)Cc2ccccc2)n1 |
